Experimental findings from article PMC3210414 (Nature structural & molecular biology, 2011) are described below.

The target in assay [1] is EF-Tu (T. thermophilus) (Thermus thermophilus, UniProt Q5SHN6, T395C). Kind of assay: nitrocellulose filter binding with [3H]GDP.
Assay [2] deals with EF-Tu (T. thermophilus) (Thermus thermophilus, UniProt Q5SHN6). Kind of assay: nitrocellulose filter binding with [3H]GDP.

With `Nc1nc2c(ncn2[C@@H]2O[C@H](COP(=O)(O)OP(=O)(O)O)[C@@H](O)[C@H]2O)c(=O)[nH]1` [GDP], the Kd at EF-Tu (T. thermophilus) [1] came out at 11 nM; at EF-Tu (T. thermophilus) [2], 7 nM.
